One molecule from paper PMC6770581, “New Thalidomide-Resembling Dicarboximides Target ABC50 Protein and Show Antileukemic and Immunomodulatory Activities” (Biomolecules, 2019) can be followed below.

The experiment relates to HeLa cells with knocked-down ABC50 (HeLa kdABC). The experiment in a line: MTT viability of HeLa cells with siRNA knockdown of ABC50. In kind it is cell-based, human. The settings on record: 48 h. The protocol: Human umbilical vein endothelial cells (purchased from Life Technologies, Carlsbad, CA, USA) were cultured according to the manufacturer’s instructions in Medium 200 supplemented with Low Serum Growth Supplement. 1 × 10^4 cells were seeded on each well on a 96-well plate (Nunc, Roskilde, Denmark). The HeLa (human cervix carcinoma, cat. #93021013), CFPAC (human pancreatic adenocarcinoma, cat. #91112501), K562 (chronic myelogenous leukemia, cat. #89121407), HL-60 (acute myelogenous leukemia, cat. #98070106), and MOLT-4 (Human acute T lymphoblastic leukemia, cat. #85011413) cells were purchased from European Collection of Authenticated Cell Cultures (ECACC). They were cultured in an RPMI 1640 medium supplemented with antibiotics (streptomycin, penicillin) and 10% fetal calf serum (20% for HL60), in a 5% CO2-95% air atmosphere. 7 × 10^3 cells were seeded on each well on a 96-well plate (Nunc). 24 hours later the cells were exposed to the test compounds. […] The cytotoxicity of all compounds was determined by the MTT (3-(4,5-dimethylthiazol-2-yl)-2,5-diphenyltetrazolium bromide) assay (Sigma, St. Louis, MO, USA). […] MTT-formazan crystals were dissolved in 20% SDS and 50% DMF at pH 4.7 and VIS light absorption was measured at 570 and 650 nm on a microplate reader FLUOstar Omega (BMG Labtech, Offenburg, Germany). […]
HeLa cells were transfected with a siRNA with the aid of Lipofectamine 3000 (Invitrogen, Carlsbas, CA, USA) according to manufacturer’s instructions. […] Unless otherwise stated, cells transfected with a given siRNA were analyzed 48 h post-transfection. siRNAs for ABC50 (NM_001090) were designed with the aid of the siDESIGN Center (www.dharmacon.com), synthesized in-house (the Department of Bioorganic Chemistry, Centre of Molecular and Macromolecular Studies, Polish Academy of Sciences (CMMS PAS) and purified by high-performance liquid chromatography (HPLC). The silencing efficiency of siRNAs was determined by western blotting of ABC50 protein in transfected HeLa cells. The following siRNA duplexes (S—sense strand, AS—antisense strand) were used: […]

For `CN(C)CCN1C(=O)C2C(C1=O)C1(c3ccccc3)CC2(c2ccccc2)C(c2ccccc2)=C1c1ccccc1` (stereo not drawn) [Compound 6], the “viability of HeLa cells with normal levels of ABC50 (siCTL)” value (control siRNA, up to 2.5 µM) is on record as “significantly lower”. Under “si166, 5 µM”, the “reduction of viability of HeLa kdABC” value is given as “about 20%”. Further, for the setting “si166, up to 2.5 µM”, the “viability of HeLa cells with knocked-down ABC50 (HeLa kdABC)” value was “not affected”.
